In paper PMC3740800, “Lanostane- and cycloartane-type triterpenoids from Abies balsamea oleoresin” (Beilstein Journal of Organic Chemistry, 2013):
In brackets after ≈: the same amount, converted by molar mass.

What was measured:
Type in all cases: cell-based
S. aureus (ATCC 25923) = experiment: antibacterial microdilution assay, S. aureus; conditions: for MIC: Staphylococcus aureus, ATCC25923, 6 h at 37 °C, read-out: MIC against S. aureus
Experimental: (§1) The isolates were evaluated in vitro for their cytotoxic activities against two human cancer cell lines, namely lung carcinoma (A549) and colon adenocarcinoma (DLD-1), as well as against one healthy cell line (WS1) using the resazurin reduction test. Etoposide was used as a positive control (IC50 ≤ 1.0 µM). […] The antibacterial activity of isolated compounds was also evaluated in vitro against E. coli and S. aureus using the microdilution assay with gentamycin as a positive control (MIC < 0.1 µg/mL).
(§2) Antibacterial activity was evaluated using the microdilution method with some modifications. Briefly,
(§3) exponentially growing bacteria were plated in 96-well flat-bottom microplates (BD Falcon) at a density of
(§4) 5 × 103 Gram-negative E. coli (ATCC 25922) or 40 × 103 Gram-positive S. aureus (ATCC 25923) per
(§5) well in 100 μL nutrient broth (Difco). Increasing concentrations of compounds in DMSO (Sigma-Aldrich)
(§6) were then added (100 μL per well). The final concentration of DMSO in the culture medium was
(§7) maintained at 0.25% (v/v) to avoid solvent toxicity. Fifty microliters of 4% resazurin was added to each
(§8) well and the microplates were incubated for 6 h at 37 °C. Absorbance was measured after 6 h on an
(§9) automated 96-well Varioskan plate reader (Thermo-Labsystems) at wavelengths of 600 nm and 660 nm
(§10) for E. coli and S. aureus respectively.

lung carcinoma (A549) = experiment: cytotoxicity, resazurin reduction test, A549; conditions: Homo sapiens, 48 h incubation, read-out: IC50 (concentration inhibiting 50% of cell growth), A549
Experimental: as §1
(§11) 23-Oxo-3,4-seco-9βH-lanosta-4(28),7-diene-3,26-dioic acid (9): white amorphous solid; [α]22 −26.9° (c
(§12) Cytotoxic activity bioassay
(§13) Lung carcinoma (A549), colon adenocarcinoma (DLD-1) and normal skin fibroblast (WS1) human cell
(§14) lines were purchased from the American Type Culture Collection (ATCC). All cell lines were cultured in […]
(§15) solvent toxicity. Cytotoxicity was assessed using resazurin reduction test on an automated 96-well
(§16) Fluoroskan Ascent F1TM plate reader (Labsystems) using excitation and emission wavelengths of 530 nm
(§17) and 590 nm, respectively. Fluorescence was proportional to the cellular metabolic activity in each well.
(§18) Survival percentages were defined as the fluorescence in experimental wells compared to that in control
(§19) wells after subtraction of blank values. Cytotoxicity results were expressed as mean ± standard deviation […]

[1] = tested on: colon adenocarcinoma (DLD-1); experiment: cytotoxicity, resazurin reduction test, DLD-1; conditions: Homo sapiens, 48 h incubation, read-out: IC50 (concentration inhibiting 50% of cell growth), DLD-1
Experimental: as §1, §11, §12, §13, §14, §15, §16, §17, §18, §19

[2] = tested on: normal skin fibroblast (WS1); experiment: cytotoxicity, resazurin reduction test, WS1; conditions: Homo sapiens, WS1 healthy cell line, 48 h incubation, read-out: IC50 (concentration inhibiting 50% of cell growth), WS1
Experimental: as §1, §11, §12, §13, §14, §15, §16, §17, §18, §19

E. coli (ATCC 25922) = experiment: antibacterial microdilution assay, E. coli; conditions: 6 h at 37 °C
Experimental: as §1, §2, §3, §4, §5, §6, §7, §8, §9, §10

Compound	MIC (S. aureus (ATCC 25923)) [µM]	IC50 (lung carcinoma (A549)) [µM]	further results
C=C(CC(=O)CC(C)C1CCC2(C)C3CCC4C(C)(C)C(O)CCC45CC35CCC12C)C(=O)O (single isomer, unassigned; (+)) [Compound 4, (+)-rel-3α-hydroxy-23-oxocycloart-25(27)-en-26-oic acid]	25 (≈ 11.8 µg/mL)		
C=C(C)C1CC=C2C(CCC23C(=C)CCC3(C)C(C)CC(=O)C=C(C)C(=O)O)C1(C)CCC(=O)OC (single isomer, unassigned; (-)) [Compound 1, (−)-rel-abiesonic acid 3-methyl ester]	25 (≈ 12.4 µg/mL)		
C=C(C)C1CC=C2C(CCC23C(=C)CCC3(C)C(C)CC(=O)C=C(C)C(=O)O)C1(C)CCC(=O)O (centres unmarked) [Compound 6, abiesonic acid]		22	
COc1cc([C@@H]2c3cc4c(cc3[C@@H](O[C@@H]3O[C@@H]5CO[C@@H](C)O[C@H]5[C@H](O)[C@H]3O)[C@H]3COC(=O)[C@H]23)OCO4)cc(OC)c1O [Etoposide]		≤ 1	IC50 [1]: ≤ 1000 nM; IC50 [2]: ≤ 1000 nM
gentamycin			MIC against E. coli (positive control) (E. coli (ATCC 25922)): < 0.1 µg/mL; MIC against S. aureus (positive control) (S. aureus (ATCC 25923); 6 h at 37 °C): < 0.1 µg/mL
